Legend:
Integrin alpha-4/beta-1 [1] = target: T1, Integrin alpha-4/beta-1 (Homo sapiens, UniProt P05556+P13612); test: Inhibition of [125I]VCAM-Ig binding to VLA-4 of Jurkat cells in the presence of Mn2+; type: cell-based
Integrin alpha-4/beta-1 [2] = target: T1, Integrin alpha-4/beta-1; test: Inhibition of [125I]VCAM-Ig binding to VLA-4 of Jurkat cells in the presence of [Ca2+]; type: cell-based
Integrin alpha-4/beta-1 [3] = target: T1, Integrin alpha-4/beta-1; test: Inhibition of VLA-4 binding in Jurkat cells in the presence of Mg2+; type: cell-based
Integrin alpha-4/beta-1 [4] = target: T1, Integrin alpha-4/beta-1; test: Dissociation from Very late antigen 4 (VLA-4); type: protein-complex assay
[5] = Plasma clearance was determined in rhesus monkey at a dose of 1 mg/kg by iv administration; type: ADME, organism-based; set-up: dose 1 mg/kg, route intravenous; settings: cercopithecidae, read-out: Clp
[6] = Oral bioavailability in Sprague-Dawley rats at a dose of 2 mg/kg by po administration; type: ADME, organism-based; settings: rat, in vivo
[7] = Half life period was determined in Sprague-Dawley rats at a dose of 1 mg/kg by iv administration; type: ADME, organism-based; set-up: dose 1 mg/kg, route intravenous; settings: rat, in vivo
[8] = Half life period was determined in rhesus monkey at a dose of 1 mg/kg by iv administration; type: ADME, organism-based; set-up: dose 1 mg/kg, route intravenous; settings: cercopithecidae, in vivo
[9] = Half life period was determined in Beagle dog at a dose of 1 mg/kg by iv administration; type: ADME, organism-based, Canis lupus familiaris; set-up: dose 1 mg/kg, route intravenous; settings: in vivo
[10] = Plasma clearance was determined in Beagle dog at a dose of 1 mg/kg by iv administration; type: ADME, organism-based, Canis lupus familiaris; set-up: dose 1 mg/kg, route intravenous; settings: read-out: Clp
Canis familiaris = test: Unbound plasma was determined in Beagle dog at a dose of 1 mg/kg by iv administration; type: ADME, organism-based, Canis lupus familiaris; set-up: dose 1 mg/kg, route intravenous; settings: in vivo
[11] = Plasma clearance was determined in Sprague-Dawley rats at a dose of 1 mg/kg by iv administration; type: ADME, organism-based; set-up: dose 1 mg/kg, route intravenous; settings: rat, read-out: Clp
[12] = Oral bioavailability in Beagle dog at a dose of 2 mg/kg by po administration; type: ADME, organism-based, Canis lupus familiaris; settings: in vivo
[13] = Oral bioavailability in rhesus monkey at a dose of 2 mg/kg by po administration; type: ADME, organism-based, Macaca mulatta; settings: in vivo
[14] = Unbound plasma was determined in rhesus monkey at a dose of 1 mg/kg by iv administration; type: ADME, organism-based; set-up: dose 1 mg/kg, route intravenous; settings: cercopithecidae, in vivo
Rattus norvegicus = test: Unbound plasma was determined in Sprague-Dawley rats at a dose of 1 mg/kg by iv administration; type: ADME, organism-based; set-up: dose 1 mg/kg, route intravenous; settings: in vivo

T1 sequence (P05556 whole entry): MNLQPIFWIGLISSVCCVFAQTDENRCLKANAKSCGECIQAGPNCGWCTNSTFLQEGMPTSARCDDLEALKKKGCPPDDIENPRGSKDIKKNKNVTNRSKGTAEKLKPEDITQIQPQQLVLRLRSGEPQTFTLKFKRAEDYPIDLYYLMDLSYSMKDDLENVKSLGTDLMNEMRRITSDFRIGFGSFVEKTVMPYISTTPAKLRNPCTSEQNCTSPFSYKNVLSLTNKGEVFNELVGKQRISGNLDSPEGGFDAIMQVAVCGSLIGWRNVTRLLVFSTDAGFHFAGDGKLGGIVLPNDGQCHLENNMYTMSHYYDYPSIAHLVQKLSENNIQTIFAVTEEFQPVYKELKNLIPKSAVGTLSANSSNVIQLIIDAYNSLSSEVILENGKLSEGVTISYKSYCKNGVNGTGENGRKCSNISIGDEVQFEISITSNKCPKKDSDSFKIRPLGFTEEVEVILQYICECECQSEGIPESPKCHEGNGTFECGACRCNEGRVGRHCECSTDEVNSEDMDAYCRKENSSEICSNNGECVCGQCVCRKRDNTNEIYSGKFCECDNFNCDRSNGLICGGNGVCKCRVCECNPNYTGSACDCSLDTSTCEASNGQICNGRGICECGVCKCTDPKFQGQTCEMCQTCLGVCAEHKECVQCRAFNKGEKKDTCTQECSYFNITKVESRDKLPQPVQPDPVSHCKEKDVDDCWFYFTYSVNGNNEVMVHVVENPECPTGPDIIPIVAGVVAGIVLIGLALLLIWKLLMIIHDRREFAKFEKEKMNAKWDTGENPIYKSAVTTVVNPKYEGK
T1 sequence (P13612 whole entry): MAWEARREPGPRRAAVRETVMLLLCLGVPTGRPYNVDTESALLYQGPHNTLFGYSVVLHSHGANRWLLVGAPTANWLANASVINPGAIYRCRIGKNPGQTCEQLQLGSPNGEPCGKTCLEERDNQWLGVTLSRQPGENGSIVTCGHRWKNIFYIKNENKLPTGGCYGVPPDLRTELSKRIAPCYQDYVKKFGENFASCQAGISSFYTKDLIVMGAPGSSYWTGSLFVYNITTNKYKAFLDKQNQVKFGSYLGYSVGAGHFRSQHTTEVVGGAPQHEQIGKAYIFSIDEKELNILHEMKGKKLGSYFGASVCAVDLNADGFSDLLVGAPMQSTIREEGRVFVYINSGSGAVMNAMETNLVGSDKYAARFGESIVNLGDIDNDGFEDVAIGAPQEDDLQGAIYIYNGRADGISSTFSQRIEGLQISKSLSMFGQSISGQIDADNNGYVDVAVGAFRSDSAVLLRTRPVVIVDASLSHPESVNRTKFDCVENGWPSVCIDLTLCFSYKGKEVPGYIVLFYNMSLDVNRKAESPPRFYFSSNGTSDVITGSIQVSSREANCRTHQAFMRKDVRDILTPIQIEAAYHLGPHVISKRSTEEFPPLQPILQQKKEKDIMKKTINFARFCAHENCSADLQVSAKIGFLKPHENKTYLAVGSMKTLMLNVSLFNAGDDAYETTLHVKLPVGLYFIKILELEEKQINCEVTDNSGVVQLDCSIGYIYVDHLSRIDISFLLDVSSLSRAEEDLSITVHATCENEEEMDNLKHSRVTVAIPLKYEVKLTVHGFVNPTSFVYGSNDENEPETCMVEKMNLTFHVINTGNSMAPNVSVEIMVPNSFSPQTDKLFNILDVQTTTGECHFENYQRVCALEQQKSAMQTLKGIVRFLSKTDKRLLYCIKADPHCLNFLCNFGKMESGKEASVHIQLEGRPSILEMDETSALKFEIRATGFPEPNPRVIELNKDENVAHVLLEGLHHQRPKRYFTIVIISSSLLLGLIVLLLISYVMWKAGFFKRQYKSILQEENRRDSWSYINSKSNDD

Compound	IC50 (Integrin alpha-4/beta-1 [1]) [nM]	IC50 (Integrin alpha-4/beta-1 [2]) [nM]	IC50 (Integrin alpha-4/beta-1 [3]) [nM]	Bound (Integrin alpha-4/beta-1 [4]) [%]	also measured
COc1cc(CN2CCCC2)cc(OC)c1-c1ccc(C[C@H](NC(=O)[C@]2(C)CCCN2S(=O)(=O)c2cc(Cl)cc(Cl)c2)C(=O)O)cc1	0.1	0.09	0.09	43	–
COc1ccnc(Cl)c1C(=O)Nc1ccc(C[C@H](NC(=O)[C@]2(C)CCCN2S(=O)(=O)c2cc(Cl)cc(Cl)c2)C(=O)O)cc1	0.13	0.08	0.08	40	–
COc1cccc(OC)c1-c1ccc(C[C@H](NC(=O)[C@]2(C)CCCN2S(=O)(=O)c2cc(Cl)cc(Cl)c2)C(=O)O)cc1	–	0.09	0.09	1	–
C[C@@]1(C(=O)N[C@@H](Cc2ccc(NC(=O)c3c(Cl)cccc3Cl)cc2)C(=O)O)CCCN1S(=O)(=O)c1cc(Cl)cc(Cl)c1	0.21	0.15	0.15	15	–
O=C(Nc1ccc(C[C@H](NC(=O)[C@@H]2CCCN2S(=O)(=O)c2cc(Cl)cc(Cl)c2)C(=O)O)cc1)c1c(Cl)cncc1Cl	0.1	0.07	0.07	62	–
C[C@@]1(C(=O)N[C@@H](Cc2ccc(NC(=O)c3cnccc3Cl)cc2)C(=O)O)CCCN1S(=O)(=O)c1cc(Cl)cc(Cl)c1	0.14	0.21	0.21	26	–
C[C@@]1(C(=O)N[C@@H](Cc2ccc(NC(=O)C3=C(Cl)CC(=O)N=C3Cl)cc2)C(=O)O)CCCN1S(=O)(=O)c1cc(Cl)cc(Cl)c1	0.1	0.08	0.08	61	–
O=C(Nc1ccc(C[C@H](NC(=O)[C@@H]2CCCN2S(=O)(=O)c2cccc(Cl)c2)C(=O)O)cc1)c1c(Cl)cncc1Cl	0.09	0.1	0.1	37	–
C[n+]1ccc(C(=O)Nc2ccc(C[C@H](NC(=O)[C@]3(C)CCCN3S(=O)(=O)c3cc(Cl)cc(Cl)c3)C(=O)O)cc2)c(Cl)c1	0.16	0.31	0.31	0	–
CSc1cnccc1C(=O)Nc1ccc(C[C@H](NC(=O)[C@]2(C)CCCN2S(=O)(=O)c2cc(Cl)cc(Cl)c2)C(=O)O)cc1	0.36	1.56	1.56	0	–
C[C@@]1(C(=O)N[C@@H](Cc2ccc(NC(=O)c3cccnc3)cc2)C(=O)O)CCCN1S(=O)(=O)c1cc(Cl)cc(Cl)c1	0.27	0.25	0.25	12	–
C[C@@]1(C(=O)N[C@@H](Cc2ccc(NC(=O)c3c(Cl)ccnc3Cl)cc2)C(=O)O)CCCN1S(=O)(=O)c1cc(Cl)cc(Cl)c1	0.11	0.11	0.11	57	clearance [5]: 7.5 mL/min/kg; bioavailability [6]: 1.6%; half-life [7]: 1.7 h; half-life [8]: 2.3 h; half-life [9]: 0.73 h; clearance [10]: 32 mL/min/kg; Unbound plasma (Canis familiaris): 2.2%; clearance [11]: 1.9 mL/min/kg; bioavailability [12]: 0.4%; bioavailability [13]: 4%; Unbound plasma [14]: 0.15%; Unbound plasma (Rattus norvegicus): 0.2%
O=C(Nc1ccc(C[C@H](NC(=O)[C@@H]2CCCN2S(=O)(=O)c2ccccc2)C(=O)O)cc1)c1c(Cl)cncc1Cl	0.15	0.13	0.13	19	–
C[n+]1cc(Cl)c(C(=O)Nc2ccc(C[C@H](NC(=O)[C@]3(C)CCCN3S(=O)(=O)c3cc(Cl)cc(Cl)c3)C(=O)O)cc2)c(Cl)c1	0.19	0.1	0.1	61	–

From ChEMBL document CHEMBL1145733, “N-isonicotinoyl-(L)-4-aminophenylalanine derivatives as tight binding VLA-4 antagonists” (Bioorg Med Chem Lett, 2003)
